Entries after “also recorded” stand apart in the source; their conditions may differ. Where two headings read alike, the source gives them in different places.
How the values were obtained:
[1] = Abdominal NMR imaging in rabbits (Example 11); type: in vivo
Method: Two rabbits were anesthetized and abdominal NMR images were obtained in the General Electric NMR scanner. Rabbits then received intravenous doses of 0.3 ml/kg (0.5 mmol Gd(III)/kg) of the preparation of composition D of Example 1 (GdNa2 DTPA) and additional abdominal NMR images were made over a period of two hours after dosing.

[2] = Acute intravenous toxicity of GdNa2 DTPA in mice (Example 7); type: in vivo, Swiss CF-1 albino mice
Excerpt: The acute intravenous toxicity of disodium (diethylenetriaminepentaacetato)gadolinium (III) (composition C of Example 1) was studied.
A total of 16 Swiss CF-1 albino mice (8 male, 22.0-25.6 g; 8 female, 18.2-24.1 g) were used. Picric acid markings were used for individual identification.
The protocol of Example 4 was used. Groups of 2-4 mice, with sexes equally represented, received single intravenous doses of the test substance according to the following schedule: […]

[3] = for Blood T1: before contrast 510
[4] = Acute intravenous toxicity in mice (Example 4); details: for Cumulative Mortalities/Number Dosed, Female / Cumulative Mortalities/Number Dosed, Male: 7 days; for LD50: 7-day observation
Method: (§1) In addition, the cardiotoxic effects of single bolus intracoronary arterial injections of 4, 8, 16 or 32 mg MnCl2 were evaluated in the isolated perfused rabbit heart (IPRH).
(§2) The aqueous vehicle for the suspension of negatively charged liposomes consisted of 0.9% NaCl buffered with 0.003 M sodium phosphate, pH 7.4. The lipid concentration was 50 μmol/ml.
A total of 60 mice, 30 males (body weight range of 20-33.5 g) and 30 females (body weight range of 19.1-29.7 g) were used. Fifty of the mice were Swiss ICR, CD-1, obtained from Charles River and ten were Swiss CF-1 obtained from Sasco (Omaha, Neb.).
The four test substances were administered via the lateral tail vein of the mouse at a rate of 1 ml/min with the following doses given.

[5] = test system: isolated perfused rabbit heart; test: Intracoronary cardiotoxicity in the isolated perfused rabbit heart (IPRH)
Method: as §1, §2
A total of 8 female, New Zealand albino rabbits, with body weights ranging from 1.97-2.96 kg were used in the study.
Rabbits were sacrificed by cervical dislocation, the hearts excised and coronary perfusion was performed at constant pressure via the aortic root using an oxygenated physiological salt solution (Chenoweth's solution) heated to 37° C. A 0.8%, w/v, solution of MnCl2 was heated to 37° C. and intracoronary bolus injections of 0.5, 1.0, 2.0 and 4.0 ml were made in each of the six hearts via a sidearm of the perfusion apparatus. A period of time sufficient to allow the heart to stabilize was allowed between injections. The heart rate (HR), contractile force (CF) and electrocardiogram (ECG) were recorded on a Grass Model 7 polygraph. The maximal percentage changes from pre-injection control values for HR and CF were determined during intervals of […] and 15-30 seconds after injection. The percentage changes from control HR and CF were also recorded at 1, 2, 3 and 4 minutes after injection. The ECG was examined for arrhythmias. When ventricular fibrillation (VF) occurred, no calculations were performed with CF and HR data from that injection.

[6] = Biodistribution of 54MnNa2 EDTA and 54Mn-L in rats (Example 5); type: in vivo, Sprague-Dawley rats
Excerpt: A total of forty Sprague-Dawley rats (20 male, 217-295 g; 20 female, 151-208 g; Charles River) were used. Drinking water was provided ad libitum. The animals, 2 males and 2 females per group, were selected randomly from their cages and were identified with indelible ink numbers at tail bases before test substance administration.
Rats were divided into 10 groups consisting of 2 male and 2 female rats per group. […] Immediately after dosing, rats were housed in individual metabolism cages. Ground Purina Laboratory Chow and water were supplied ad libitum to animals sacrificed at 24 and 48 hr after treatment. Rats from both ^54 NmNa2 EDTA and ^54 Mn-L treatment groups were sacrificed by cervical dislocation at 0.5, 2, 4, 24 and 48 hr after treatment, and the following samples were obtained: injection site, blood, liver, lung, spleen, heart, kidneys, salivary gland (submaxillary), brain, bone with marrow, muscle and fat. Urine samples were obtained from animals sacrificed at all intervals of 2 hr or more after injection and fecal samples were obtained from animals sacrificed at 24 and 48 hr after treatment. […] The entire organ weights were determined for the remaining tissues.
Levels of radioactivity in the biological specimens and aliquots of the injected test substances were determined using a gamma scintillation spectrometer (Model 1085, Nuclear Chicago Corp., Des Plaines, Ill.). Results were calculated on a percent dose/organ (or fluid) and a percent dose/g (or ml) basis using an HP-85 desk top computer (Hewlett Packard, Fort Collins, Colo.).
Kinetic data for the elimination of radioactivity from liver, spleen, kidneys, heart and bone with marrow were curve fitted by the peeling and least-square methods, to mono or bi-exponential equations: [formula]
The half-life (t 1/2) for each elimination phase was calculated as 0.693/Ki. The square of the correlation coefficient (r^2) for each elimination phase was calculated as an indication of variability.

[7] = 0.34 mmol Gd(III)/kg, 10 minutes
[8] = 32 mg dose, 0-15 s, only 1 heart, all others had VF

## O=C([O-])CN(CCN(CC(=O)[O-])CC(=O)[O-])CCN(CC(=O)[O-])CC(=O)[O-].[Gd+3].[Na+].[Na+] [GdNa2 DTPA, disodium (diethylenetriaminepentaacetato)gadolinium (III)]
[1]; 0.3 ml/kg (0.5 mmol Gd(III)/kg) i.v.
  renal medulla and renal cortex proton images: Marked alteration
[1]; 0.3 ml/kg i.v.
  time of peak effects on renal images: ≤ 15 min
[2]; intravenous, mice
  dose up to which no deaths were observed: 12000 mg/kg
[2]; mouse
  acute intravenous toxicity profile (in words): relatively safe mouse acute intravenous toxicity profile
[2]; mouse, in vivo
  body weight (in words): slight reduction in body weight
  respiratory distress: respiratory distress was observed
  time until all mice appeared normal: ≤ 6 h
0.51 mmol/kg, 5 minutes
  Mean T1, Blood: 292 ms
0.51 mmol/kg, 10 minutes
  Mean T1, Blood: 321 ms
0.51 mmol/kg, 15 minutes
  Mean T1, Blood: 337 ms
  Mean tissue T1, Fat: 61 ms
  Mean tissue T1, Heart: 267 ms
  Mean tissue T1, Large Intestine: 228 ms
  Mean tissue T1, Liver: 172 ms
  Mean tissue T1, Lung: 303 ms
  Mean tissue T1, Pancreas: 172 ms
  Mean tissue T1, Renal Cortex: 137 ms
  Mean tissue T1, Renal Medulla: 130 ms
  Mean tissue T1, Skel. Muscle: 217 ms
  Mean tissue T1, Small Intestine: 224 ms
  Mean tissue T1, Spleen: 257 ms
  Mean tissue T1, Stomach: 219 ms
0.1, 0.3 and 1.0 ml/kg i.v.
  changes in T1 relative to changes in T2: generally greater than changes in T2 values
  tissue and blood T1 and T2 values (in words): Dose-related changes in tissue and blood T1 and T2 values
  tissues with the most profound effects on T1: blood and kidneys (both cortex and medulla) with large intestine, pancreas and stomach the next most sensitive
rabbit, in vivo, iv
  Cardiovascular effects: minimal
[3]; 0.17 mmol Gd(III)/kg, 10 minutes
  T1, infarcted regions of heart muscle: 290 ms
[3]; 0.17 mmol Gd(III)/kg, 10 minutes, untreated 330
  T1, normally perfused myocardial tissue: 180 ms
[3]; 0.34 mmol Gd(III)/kg
  average T1, infarcted tissue: 230 ms
[3]; 0.34 mmol Gd(III)/kg, 5 minutes
  Blood T1: 50 ms
[3]; [7]
  images of excised hearts, normal versus infarcted tissue: marked differences between normal and infarcted tissues
  Blood T1: 100 ms
[3]; 0.34 mmol Gd(III)/kg, untreated 330
  average T1, normally perfused myocardium: 135 ms

## [Cl][Mn][Cl] [MnCl2, manganese (II) chloride]
[4]; 25 mg/kg i.v.
  Cumulative Mortalities/Number Dosed, Female: 1/5
  Cumulative Mortalities/Number Dosed, Male: 3/5
[4]; 31.25 mg/kg i.v.
  Cumulative Mortalities/Number Dosed, Female: 4/5
  Cumulative Mortalities/Number Dosed, Male: 2/5
[4]; 37.5 mg/kg i.v.
  Cumulative Mortalities/Number Dosed, Female: 4/5
  Cumulative Mortalities/Number Dosed, Male: 4/5
[4]; all deaths with the exception of one (4 days)
  time of death after dosing was completed: one
[4]; intravenous, mice
  acute intravenous toxicity (in words): high degree of acute toxicity
[4]; intravenous, mice, 10080 min
  LD50: 28 mg/kg
  LD50 as Mn(II): 0.22 mmol/kg of Mn(II)
[4]; intravenous, mice, listed as 1, 10080 min
  LD50: 28.0 mg/kg
[4]; intravenous, mice, thoracotomy of one mouse
  cause of death: cardiac arrest
[5]; 4 mg dose
  Incidence of Ventricular Fibrillation (VF): 0/6
[5]; 4 mg dose, 0-15 s
  Mean % Change in Contractile Force (CF): -5%
  Mean % Change in Heart Rate (HR): -2%
[5]; 4 mg dose, 15-30 s
  Mean % Change in Contractile Force (CF): -28%
  Mean % Change in Heart Rate (HR): -2%
[5]; 4 mg dose, 1 min
  Mean % Change in Contractile Force (CF): -12%
[5]; 4 mg dose, 2 min
  Mean % Change in Contractile Force (CF): +5%
  Mean % Change in Heart Rate (HR): -2%
[5]; 8 mg dose
  Incidence of Ventricular Fibrillation (VF): 0/6
[5]; 8 mg dose, 0-15 s
  Mean % Change in Contractile Force (CF): -74%
  Mean % Change in Heart Rate (HR): -8%
[5]; 8 mg dose, 15-30 s
  Mean % Change in Contractile Force (CF): -38%
  Mean % Change in Heart Rate (HR): -7%
[5]; 8 mg dose, 1 min
  Mean % Change in Contractile Force (CF): -17%
  Mean % Change in Heart Rate (HR): -7%
[5]; 8 mg dose, 2 min
  Mean % Change in Contractile Force (CF): +2%
  Mean % Change in Heart Rate (HR): -6%
[5]; 16 mg dose
  Incidence of Ventricular Fibrillation (VF): 2/6
[5]; 16 mg dose, 0-15 s
  Mean % Change in Contractile Force (CF): -92%
  Mean % Change in Heart Rate (HR): -31%
[5]; 16 mg dose, 15-30 s
  Mean % Change in Contractile Force (CF): -61%
  Mean % Change in Heart Rate (HR): -14%
[5]; 16 mg dose, 1 min
  Mean % Change in Contractile Force (CF): -37%
  Mean % Change in Heart Rate (HR): -14%
[5]; 16 mg dose, 2 min
  Mean % Change in Contractile Force (CF): -1%
  Mean % Change in Heart Rate (HR): -11%
[5]; 16 mg dose, during or immediately after injection
  premature ventricular contractions in hearts which did not fibrillate: two of the four hearts
[5]; 32 mg dose
  Incidence of Ventricular Fibrillation (VF): 5/6
  conduction block in the single heart which failed to fibrillate: complete A-V conduction block with ventricular standstill
[5]; [8]
  Mean % Change in Contractile Force (CF): -100%
  Mean % Change in Heart Rate (HR): -100%
[5]; 32 mg dose, 15-30 s
  Mean % Change in Contractile Force (CF): -64%
  Mean % Change in Heart Rate (HR): -17%
[5]; 32 mg dose, 1 min
  Mean % Change in Contractile Force (CF): -33%
  Mean % Change in Heart Rate (HR): -17%
[5]; 32 mg dose, 2 min
  Mean % Change in Contractile Force (CF): +2%
  Mean % Change in Heart Rate (HR): -14%
[5]; 4-32 mg
  arrhythmias (in words): dose-related incidence of arrhythmias; also recorded: conduction delays and ventricular arrhythmias
[5]; 4-32 mg, maximal within 0-15 seconds
  effect on CF and HR (in words): Dose-related decreases in CF and HR; also recorded: dose-related depression of contractility and heart rate
[5]; ECG, 4-32 mg
  PR and QRS intervals: dose-related increases in PR and QRS intervals

## O=C([O-])CN(CCN(CC(=O)[O-])CC(=O)[O-])CC(=O)[O-].[54Mn+2].[Na+].[Na+] [^54 MnNa2 EDTA, disodium (ethylenediaminetetraacetato) manganese (II)]
[6]; 0.5-48 hr
  distribution, percent dose/organ (in words): distributed primarily to the liver, bone with marrow, muscle and kidneys
[6]; bone and marrow
  bone and marrow half-life: > 100 h
[6]; heart
  heart half-life, monophasic elimination: approximately 8 hr
[6]; intravenous
  blood disappearance/clearance (in words): rapidly cleared from the blood
[6]; kidney
  share associated with rapid first phase renal elimination: Approximately 81%
[6]; kidney, biphasic
  renal clearance t 1/2, initial rapid phase: < 1 h
  renal clearance t 1/2, secondary slow phase: > 17 h
[6]; liver
  share associated with rapid first phase hepatic elimination: Approximately 92%
[6]; liver, biphasic
  hepatic clearance t 1/2, initial rapid phase: < 1 h
  hepatic clearance t 1/2, secondary slow phase: > 17 h
[6]; spleen
  spleen half-life, monophasic elimination: ~ 2 hr
[6]; within 2 hr after treatment
  dose eliminated in the urine: > 50%

— patent US5407660A, “Diagnostic liposomal compositions for enhancing NMR imaging” (Mallinckrodt Medical, Inc., priority 1993, dated 1995)
